{"source": "patent US9328130B2", "about": "“Method of treating organism by biologically active compounds specifically delivered into mitochondria, pharmaceutical composition required for the use of the method and a compound applicable for this purpose” (MITOTECH S.A., priority 2005, dated 2016)", "key": {"[1]": {"test": "Transfer across the planar bilayer phospholipid membrane", "format": "physicochemical", "conditions": "50 mM TrisHCl pH 7.4; 10^−7 to 10^−5 M; distributes according to Nernst equation", "excerpt": "The experimental method has been used several times before in the experiments aimed at the exploring of an ability of different ions to penetrate the planar bilayer lipid membrane and is described in details Liberman […]., 1969, Nature, 222, 1076-8. This method includes the use of two chambers filled in with water-based solution and separated by bilayer membrane, also the electrometrical registration of transfer of charged compounds capable of penetration across such membrane from one chamber to another. In our experiment the membrane was made of mixture of […] and diphytanoyl derivative of […] dissolved in decane; both chambers were filled with 50 mM TrisHCl, pH 7.4 containing 10^-7 M SkQ1."}, "[2]": {"test": "Spontaneous oxidation of reduced (quinol) forms by air oxygen", "format": "physicochemical", "conditions": "20 mM MOPS-KOH, pH=7.6; aerobic", "procedure": "Stability of the reduced (quinols) forms of SkQ1 and MitoQ under aerobic conditions was examined by analysis of the absolute absorption spectra of these compounds in a range from 240 to 310 nm using double-beam spectrophotometer Pye Unicam SP1100, England. Quinone derivatives were reduced with sodium tetrahydroborate in the medium containing 20 mM MOPS-KOH, pH=7.6. […] The level of reduced quinones was estimated by the size of peak area using the weighing method; absolute absorption value at 267 nm (maximum absorption) was used as a control."}, "[3]": {"test": "Oxidation of quinols by superoxide-anion radicals generated in xanthine oxidase/hypoxanthine system", "format": "biochemical", "excerpt": "In order to compare antioxidant activity of the reduced forms, we measured the oxidation rate of quinols by superoxide-anion radicals generated in xanthine oxidase/hypoxanthine system."}, "[4]": {"system": "respiratory chain of rat liver mitochondria", "format": "biochemical", "procedure": "FIG. 5 describes the oxidation of quinols of “MitoQ” and “SkQ1” by respiratory chain of rat liver mitochondria energized with succinate (5 mM) in the presence of 2 μM rotenone. After complete reduction of […] the respiratory chain was blocked with 25 mM malonate and reoxidation rate of “MitoQ” and “SkQ1” was measured. In order to examine whether the test compounds (SkQ1 and MitoQ) can be reduced by the respiratory chain of mitochondria, changes of the ratio between oxidized and reduced forms of test compounds were measured in the presence of respiratory substrates in a medium used for isolation of rat liver mitochondria. The measurements were carried out in the presence of mitochondria (protein concentration 0.2 mg/ml)."}, "human lung fibroblasts": {"system": "human lung fibroblasts", "test": "Protection from apoptosis caused by H2O2", "format": "cell-based", "conditions": "preincubation with 20 nM for 6 days", "procedure": "Normal diploid fibroblasts from human skin and lung, human uterus carcinoma cells (HeLa cells) and human lymphoma cells (U 937 strain) were used in this experiment. Cells were cultivated in standard media (DMEM or RPMI) in the presence of 10% fetal serum at 37° C. and 5% CO2. Experiments were carried out on the cultured cells grown to 30-50% confluency. H2O2 was added once and the cells were analyzed after 18-24 h of incubation. Apoptotic death was monitored by condensation of chromatin and nucleus fragmentation after staining the cells with Hoechst 33342 (1 μg/ml, 15 min). 300-500 cells were taken into account from each preparation and the final results are the average of 3-5 independent experiments. Necrosis was determined by staining of nuclei with propidium iodide (2 μg/ml, 5 min). […] It was confirmed that apoptosis in all cases was accompanied with decrease of mitochondrial membrane potential, release of cytochrome c from mitochondria into cytoplasm and activation of caspases."}, "Hela cells [5]": {"system": "Hela cells", "test": "Transmission of apoptotic signal between inducer and recipient slides", "format": "cell-based, human", "conditions": "for apoptosis at slide-recipient: TNF", "procedure": "HeLa cells were used in these experiments. Cells grown on a glass slide were treated with different apoptosis-inducing agents (tumor necrosis factor (TNF), staurosporine, H2O2) for 3 h. Then the glass slide with cells (inducer) was washed to remove these reagents and placed into Petri plate to come into contact with glass slide (recipient) with cells grown in the absence of any apoptosis-inducing agent. After 16-18 h of subsequent growth and staining the cells with Hoechst 33342 as described above, apoptosis at both glass slides was analyzed.\nThus the main mediator of apoptosis signal was H2O2."}, "[6]": {"test": "Light-dependent inactivation of gramicidin channel in model lipid membrane with phthalocyanine photosensitizer", "format": "biochemical", "conditions": "SkQ1 at 1 μM"}, "Hela cells [7]": {"system": "Hela cells", "test": "Necrosis after photodynamic treatment (chloromethyl-X-rosamine, green light)", "format": "cell-based, human", "procedure": "Protection from photodynamic treatment was studied using cultured HeLa cells. Cells were incubated with photosensitizer chloromethyl-X-rosamine (0.5 μM, 15 min) which was then selectively accumulated within mitochondria. Cells were photoirradiated with green light (at maximum absorption for photosensitizer of […]) through the objective of microscope Axiovert 200M (Zeiss, Germany) for 1-2 min and analyzed 5 h later. Necrosis was determined by staining of nuclei with propidium iodide (2 μg/ml, 5 min)."}, "[8]": {"system": "coronary arteries of the isolated hearts of rats", "test": "Isolated perfused rat heart, perfusion pressure during H2O2 introduction", "format": "in vivo", "procedure": "It is known that reactive oxygen species (ROS) have regulatory or toxic effects on a cardiac muscle depending on their concentrations. When studying SkQ1 compound its ability to modulate ROS action has been found. Experiments have been carried out in the isolated hearts of rats which were given SkQ1 intravenously or with nutrition (50 μg/kg). The heart was isolated 2 hours after intravenous introduction of the compound, or after 2-week nutritional supplementation. The heart was perfused retrogradely according to a standard procedure by Krebs solution with a constant rate, and perfusion pressure (PP) characterized the tonus of coronary arteries. A spontaneous heart rate and isovolumic pressure in a left ventricular latex balloon were also recorded. These parameters were monitored at 40-minute introduction of 150 mcM H2O2, a standard ROS generator."}, "[9]": {"system": "Normal fibroblasts from the human skin and lung", "test": "Morphology and mobility of normal fibroblasts", "format": "cell-based", "conditions": "20 nM for 6 days", "procedure": "(§1) Normal fibroblasts from the human skin and lung and HeLa cells were cultivated at low cell density (20-30% confluency). Morphometric measurements were carried out for cell area, dispersion and elongation. Cytoskeleton structures were analyzed by staining the fixed cell preparations with rhodamine falloidin (actin filaments), antibodies against tubulin (microtubules) and vinculin (surface contacts). Mobility of the cells was examined with the help of microvideo camera."}, "Hela cells [10]": {"system": "Hela cells", "test": "Morphology of HeLa cells", "format": "cell-based, human", "procedure": "as §1"}, "Hela cells [11]": {"system": "Hela cells"}}, "data": [{"smiles": "CC1=C(C)C(=O)C(CCCCCCCCCC[P+](c2ccccc2)(c2ccccc2)c2ccccc2)=CC1=O.[Br-]", "note": "[SkQ1, 2,3-dimethyl-1,4-benzoquinon-5-decyl-triphenylphosphonium bromide]", "values": [{"measurement": "penetration of planar bilayer phospholipid membrane", "setting": "[1]", "value": "penetrates the planar bilayer phospholipid membrane"}, {"measurement": "autooxidation of the reduced (quinol) form by air oxygen relative to MitoQ", "setting": "[2]", "value": "about three-fold lower"}, {"measurement": "oxidation rate in the presence of both air oxygen and superoxide radical relative to MitoQ", "setting": "[3]; FIG. 3a", "value": "about two times higher"}, {"measurement": "oxidation rate of quinol form by superoxide radical relative to MitoQ", "setting": "[3]; oxidation by air oxygen subtracted, FIG. 3b", "value": "very much faster than MitoQ"}, {"measurement": "concentration not suppressing mitochondrial respiration", "setting": "[4]", "value": "up to 10 μM"}, {"measurement": "time compound retains intact under incubation conditions in biological media", "setting": "[4]; whole experiment", "value": "at least tens of minutes"}, {"measurement": "apoptosis among cell population", "setting": "human lung fibroblasts; 100 μM H2O2", "value": "7±3", "unit": "%"}, {"measurement": "apoptosis among cell population", "setting": "human lung fibroblasts; 200 μM H2O2", "value": "12±5", "unit": "%"}, {"measurement": "H2O2 concentration in the medium", "setting": "Hela cells [5]; 24 hours after contact, inductor cells preincubated", "value": "40 ± 10", "unit": "nM"}, {"measurement": "apoptosis at slide-recipient", "setting": "Hela cells [5]; preincubation of inducer with 20 nM", "value": "17±3", "unit": "%"}, {"measurement": "apoptosis at slide-recipient", "setting": "Hela cells [5]; preincubation of recipient cells", "value": "16±4", "unit": "%"}, {"measurement": "protective effect on recipient cells", "setting": "Hela cells [5]; corrected for 12±3% apoptosis from emetine", "value": "~100", "unit": "%"}, {"measurement": "apoptosis at slide-inducer caused by TNF", "setting": "Hela cells [5]; inductor cells incubated with 20 nM for 6 days", "value": "90±5", "unit": "%"}, {"measurement": "H2O2 concentration in the medium", "setting": "Hela cells [5]; recipient cells preincubated", "value": "did not lead to decrease of H2O2 concentration"}, {"measurement": "light-dependent inactivation of gramicidin", "setting": "[6]", "value": "completely prevents"}, {"measurement": "necrotic cell death", "setting": "Hela cells [7]; 1 μM added 1 h before photoirradiation", "value": "15±5", "unit": "%"}, {"measurement": "necrosis from photodynamic treatment", "setting": "Hela cells [7]; preincubated with 20 nM for 6 days", "value": "25±5", "unit": "%"}, {"measurement": "PP change at the end of H2O2 introduction", "setting": "[8]; prolonged consumption", "value": "−29±6", "unit": "mmHg"}, {"measurement": "maximal PP decline", "setting": "[8]; prolonged consumption (2-week nutritional supplementation)", "value": "−38±5", "unit": "mmHg"}, {"measurement": "maximal PP decline versus initial level before H2O2", "setting": "[8]; single intravenous introduction", "value": "−43±5", "unit": "mmHg"}, {"measurement": "minimal perfusion pressure (PP) level", "setting": "[8]; single intravenous introduction 50 μg/kg, heart isolated 2 hours later, 150 mcM H2O2", "value": "77±2", "unit": "mm Hg"}, {"measurement": "amount of actin filaments, times higher", "setting": "[9]", "value": 3.7, "unit": "times"}, {"measurement": "dispersion index lowered by factor", "setting": "[9]", "value": 2.4}, {"measurement": "filament density in comparison to the control", "setting": "[9]", "value": 136, "unit": "%"}, {"measurement": "mean cell area, times higher than control", "setting": "[9]", "value": 2.9, "unit": "times"}, {"measurement": "mobility of fibroblasts", "setting": "[9]", "value": "distinctly lower"}, {"measurement": "rate of fibroblast proliferation", "setting": "[9]", "value": "no influence on the rate of fibroblast proliferation"}, {"measurement": "elongation index", "setting": "[9]; control 2.34", "value": 0.69}, {"measurement": "amount of actin filaments", "setting": "Hela cells [10]", "value": "increased"}, {"measurement": "mean density of filaments", "setting": "Hela cells [10]", "value": "not changed"}, {"measurement": "mean area, times higher", "setting": "Hela cells [10]; same treatment as fibroblasts", "value": 2.6, "unit": "times"}, {"measurement": "LD50 in the presence of hydrogen peroxide", "setting": "Hela cells [11]; 100 μM hydrogen peroxide", "value": 20, "unit": "µM"}, {"measurement": "LD50 (concentrations at which 50% cells die)", "setting": "Hela cells [11]; 2 h of incubation, no hydrogen peroxide", "value": 20, "unit": "µM"}]}]}
